Results taken from ChEMBL document CHEMBL5303304, “EUbOPEN Chemogenomics Library - IncuCyte” (2023).

Tests used:
Format in all cases: toxicity, cell-based
U2OS = experiment: Incucyte cell viability with U2OS; details: human, 10 µM, compound concentration 10 uM
Fibroblast = experiment: Incucyte cell viability with human fibroblast; details: 10 µM, compound concentration 10 uM
HEK-293T = experiment: Incucyte cell viability with HEK293T; details: human, 10 µM, compound concentration 10 uM
Note: unitless GR value; below 1 slowed growth and below 0 cell loss.

Row | SMILES | Growth Rate (U2OS; 6 h, replicate number 1) | Growth Rate (U2OS; 12 h, replicate number 1) | Growth Rate (U2OS; 12 h, replicate number 2) | Growth Rate (U2OS; 18 h, replicate number 1) | Growth Rate (U2OS; 18 h, replicate number 2) | Growth Rate (U2OS; 24 h, replicate number 2) | Growth Rate (HEK-293T; 6 h, replicate number 1) | Growth Rate (HEK-293T; 6 h, replicate number 2) | Growth Rate (HEK-293T; 12 h, replicate number 1) | Growth Rate (HEK-293T; 12 h, replicate number 2) | Growth Rate (HEK-293T; 18 h, replicate number 1) | Growth Rate (HEK-293T; 18 h, replicate number 2) | Growth Rate (HEK-293T; 24 h, replicate number 2) | Growth Rate (Fibroblast; 6 h, replicate number 2) | Growth Rate (Fibroblast; 12 h, replicate number 2) | Growth Rate (Fibroblast; 18 h, replicate number 2) | Growth Rate (Fibroblast; 24 h, replicate number 2) | Growth Rate (HEK-293T; 24 h, replicate number 1) | Growth Rate (U2OS; 24 h, replicate number 1) | Growth Rate (Fibroblast; 12 h, replicate number 1) | other results
1 | COc1cc2ncnc(Nc3cccc(O)c3)c2cc1OC | 0.98 | 0.83 | 0.75 | 0.88 | 0.69 | 0.84 | 0.14 | 0.13 | 0.56 | 0.71 | 0.96 | 0.75 | 0.77 |  |  |  |  |  |  |  | Growth Rate (U2OS; 0 h, replicate number 1): -0.82; Growth Rate (U2OS; 6 h, replicate number 2): 0.55; Growth Rate (Fibroblast; 0 h, replicate number 1): -1; Growth Rate (Fibroblast; 0 h, replicate number 2): 0.07
2 | CNc1nc(Nc2ccc(C(=O)N3CCOCC3)cc2OC)ncc1Cl | -0.99 |  |  |  |  |  | 0.75 | 0.81 |  |  | 0.99 | 0.96 | 0.96 | 0.67 | 0.72 | 0.63 | 0.99 | 0.92 |  |  | Growth Rate (Fibroblast; 0 h, replicate number 1): -0.99
3 | NCC1CCC(CNc2nc(NCc3ccccc3OC(F)(F)F)ncc2[N+](=O)[O-])CC1 (centres undefined) | 0.45 | 0.44 | 0.59 | 0.69 | 0.63 | 0.59 | -0.6 | -0.49 | -0.36 | -0.27 | -0.04 | -0.01 | 0.1 | 0.74 | 0.57 | 0.35 | 0.35 | 0.09 | 0.84 | 0.28 | Growth Rate (U2OS; 6 h, replicate number 2): 0.71; Growth Rate (Fibroblast; 0 h, replicate number 1): -0.85; Growth Rate (Fibroblast; 6 h, replicate number 1): 0.48; Growth Rate (Fibroblast; 18 h, replicate number 1): -0.03; Growth Rate (Fibroblast; 24 h, replicate number 1): 0.04
4 | COC[C@@H](C)N[C@H]1CC[C@H](Nc2cc(-c3cccc(NCC4(C#N)CCOCC4)n3)c(Cl)cn2)CC1 | 0.79 | 0.88 | 0.62 | 0.59 | 0.71 | 0.68 | -0.07 |  | 0.2 | 0.18 | 0.22 | 0.24 | 0.35 | -0.13 | -0.06 | -0.22 | -0.12 | 0.27 | 0.79 | -0.08 | Growth Rate (U2OS; 0 h, replicate number 2): 0.56; Growth Rate (U2OS; 6 h, replicate number 2): 0.56; Growth Rate (Fibroblast; 0 h, replicate number 2): -1; Growth Rate (Fibroblast; 6 h, replicate number 1): 0.06; Growth Rate (Fibroblast; 18 h, replicate number 1): -0.12; Growth Rate (Fibroblast; 24 h, replicate number 1): -0.09
5 | NC(=O)c1ccc(-c2nc(-c3ccc4c(c3)OCCO4)c(-c3ccccn3)[nH]2)cc1 | 0.21 | 0.58 | 0.94 | 0.55 | 0.86 | 0.75 | 0.37 | 0.65 | 0.76 | 0.81 | 0.8 | 0.74 | 0.86 | 0.41 | 0.45 | 0.63 | 0.74 | 0.79 | 0.5 | 0.77 | Growth Rate (Fibroblast; 0 h, replicate number 1): -1; Growth Rate (Fibroblast; 0 h, replicate number 2): -0.85
6 | C=CC(=O)Nc1cc(-c2nn(C3CCC(N4CCN(C(C)=O)CC4)CC3)c3ncnc(N)c23)ccc1Oc1ccccc1 (centres undefined) | -0.85 | -0.62 | -0.57 | -0.59 | -0.48 | -0.41 | -0.71 | -0.92 | -0.48 | -0.56 | -0.4 | -0.22 | 0.09 | -0.24 | 0.07 | 0.33 | 0.67 | -0.31 | -0.59 | -0.15 | Growth Rate (U2OS; 0 h, replicate number 2): -0.83; Growth Rate (U2OS; 6 h, replicate number 2): -0.6; Growth Rate (Fibroblast; 6 h, replicate number 1): -0.52; Growth Rate (Fibroblast; 18 h, replicate number 1): 0.03; Growth Rate (Fibroblast; 24 h, replicate number 1): 0.21
7 | CC[C@H](CO)Nc1nc(Nc2cccc(-c3ccccn3)c2)c2ncn(C(C)C)c2n1.Cl.O |  | 0.96 |  | 0.92 |  |  | -0.37 | -0.77 | -0.07 | -0.31 | 0.07 | -0.09 | 0 | 0.21 | 0.28 | 0.45 | 0.49 | 0.16 | 0.76 | 0.05 | Growth Rate (U2OS; 0 h, replicate number 1): -0.98; Growth Rate (Fibroblast; 0 h, replicate number 1): -0.64; Growth Rate (Fibroblast; 6 h, replicate number 1): 0.1; Growth Rate (Fibroblast; 18 h, replicate number 1): 0.33; Growth Rate (Fibroblast; 24 h, replicate number 1): 0.45
8 | Fc1ccc(-c2nc(-c3ccc4ccccc4c3F)[nH]c2-c2ccncc2)cc1 |  |  |  |  |  | 0.94 | 0.81 | 0.42 | 0.77 | 0.57 | 0.7 | 0.41 | 0.47 | -0.01 | 0.65 | 0.8 |  | 0.67 |  | 0.47 | Growth Rate (U2OS; 0 h, replicate number 1): -1; Growth Rate (Fibroblast; 6 h, replicate number 1): 0.58; Growth Rate (Fibroblast; 18 h, replicate number 1): 0.61; Growth Rate (Fibroblast; 24 h, replicate number 1): 0.76
9 | CCN1CCN(Cc2ccc(C(=O)Nc3ccc(C)c(Oc4ccc5c(c4)CC(=O)N5)c3)cc2C(F)(F)F)CC1.Cl.Cl |  | 0.23 | -0.14 | 0.37 | -0.02 | -0.01 | -0.56 | -0.1 | -0.3 | 0.11 | -0.23 | 0.15 | 0.14 | 0.36 | -0.08 | -0.3 | -0.31 | -0.13 | 0.51 | -0.1 | Growth Rate (U2OS; 0 h, replicate number 2): -0.46; Growth Rate (U2OS; 6 h, replicate number 2): -0.37; Growth Rate (Fibroblast; 0 h, replicate number 2): 0.42; Growth Rate (Fibroblast; 6 h, replicate number 1): 0.34; Growth Rate (Fibroblast; 18 h, replicate number 1): -0.33; Growth Rate (Fibroblast; 24 h, replicate number 1): -0.38
